The source of these data is ChEMBL document CHEMBL5726791, “Inhibitors of lysine specific demethylase-1” (2018).

In this assay the target is Lysine-specific histone demethylase 1A (Homo sapiens, UniProt O60341). Briefly: In Vitro Enzyme Inhibition Assay: The enzymatic assay of LSD1 activity is based on Time Resolved-Fluorescence Resonance Energy Transfer (TR-FRET) detection. The inhibitory properties of compounds to LSD1 were determined in 384-well plate format under the following reaction conditions: 0.1-0.5 nM LSD1, 50 nM H3K4mel-biotin labeled peptide (Anaspec cat #64355), 2 μM FAD in assay buffer of 50 mM HEPES, pH7.3, 10 mM NaCl, 0.005% Brij35, 0.5 mM TCEP, 0.2 mg/ml BSA. Reaction product was determined quantitatively by TR-FRET after the addition of detection reagent Phycolink Streptavidin-allophycocyanin (Prozyme) and Europium-anti-unmodified histone H3 lysine 4 (H3K4) antibody (PerkinElmer) in the presence of LSD1 inhibitor such as 1.8 mM of Tranylcypromine hydrochloride (2-PCPA) in LANCE detection buffer (PerkinElmer) to final concentration of 12.5 nM and 0.25 nM respectively.

pIC50: −log10 of the molar value.

On to `Cn1ncc2cc(-c3sc(N4CC[C@@H]5CNC[C@@H]5CC4)nc3-c3ccc(C#N)cc3)ccc21`, for which the pIC50 was over 7.00.
